Values belong to the compound of their own block, whether it stands above or below them.
Experiments:
[1] = Assessment of capsules after manufacture: amount of tasquinimod and of decomposition products; type: physicochemical; details: for amount of compound III in capsules, relative to the amount of tasquinimod / amount of tasquinimod in capsules: after manufacture; for Decomposition products (% w/w), relative to the amount of tasquinimod in capsule / Tasquinimod (mg/capsule): 0 months (after manufacturing)
Text: (§1) In some embodiments, the method disclosed herein comprises storing (keeping) a sample of the pharmaceutical product for a period of time, preferably under selected conditions of temperature and humidity. The amount (or concentration) of tasquinimod and of at least one of compounds I, II, III and IV in the sample may preferably be determined at the beginning or before the storage period and at the end of the storage period. The selected storage conditions may include a temperature in the range of, for example, 20° C. to 40° C., and a relative humidity in the surrounding atmosphere in the range of, for example, 30% to 75%; e.g. 25° C. and 60% RH, or 30° C. and 65% RH, or 35° C. and 70% RH, or 40° C. and 75% RH. The storage period may extend over a time period in the range of, for example, several weeks to several years. For example, the stability testing period (“storage period”) may be 2 weeks, 3 weeks, 1 month, 2 months, 3 months, 4 months, 5 months, 6 months, 9 months, 1 year, 18 months, 2 years, 3 years, 4 years or even 5 years or longer. A shorter storage period may be selected by use of higher storage temperature and/or higher relative humidity (RH). The total amount of a tasquinimod decomposition product in the sample at the end of the storage period may be determined by, for example, HPLC.
The obtained batch of capsules was assessed by determining the amount of tasquinimod and the amount of compound III in a sample of the capsules. The selected criterion for approving the batch was that the capsules of the sample contain not more than 1.0% w/w of compound III relative to the amount of tasquinimod. […] Therefore, according to the selected criterion for approval, the batch of capsules was determined to be suitable for distribution.
The obtained batch of capsules was assessed by determining the amount of tasquinimod and the amount of compounds I, II, III and IV in a sample of the capsules. The selected criterion for approving the batch was that the capsules of the sample contain not more than in total 5% w/w of compounds I-IV relative to the amount of tasquinimod. […] Therefore, according to the selected criterion for approval, the batch of capsules was determined to be suitable for distribution.
The obtained batch of capsules was subjected to multiple assessments, viz. a first assessment comprising determining the amount of tasquinimod and the amount of compounds I, II, III and IV in a sample of the capsules directly after manufacturing, whereby the selected criterion for approving the batch for distribution was that the capsules of the sample, in a water impermeable blister pack, contain not more than in total 5% w/w of compounds I-IV relative to the amount of tasquinimod, followed by eight further, independent assessments, by determining the amount of tasquinimod and the amount of each one of compounds I, II, III and IV in a sample of the capsules at the end of a period of stability testing (by keeping the capsules, in a water impermeable blister pack, at 25° C./60% RH) of 3, 6, 9, 12, 18, 24, 36 and 48 months, respectively, whereby each time the criterion for approving the batch was that the capsules of the sample, at the end of each period of stability testing, contain a total amount of compounds I-IV of not more than 5.0% w/w, relative to the amount of tasquinimod in the capsules.

[2] = Stability testing of capsules at 40° C./75% RH; type: physicochemical
Text: as §1
The batch of capsules manufactured in Example 2 was assessed by determining the amount of tasquinimod and the amount of compound III in a sample of the capsules, whereby the criterion for approving the batch was that a sample of capsules from the batch, at the end of a 1-month stability testing, contain not more than 1.0% w/w of compound III relative to the amount of tasquinimod. The stability testing consisted of keeping the capsules at 40° C./75% RH in open brown glass jars. At the end of the 1-month stability testing, the capsules contained 0.13% w/w of compound III, relative to the amount of tasquinimod (1.04 mg/capsule). Therefore, according to the selected criterion for approval, the batch of capsules was determined to be suitable for distribution.
The batch of capsules manufactured in Example 7 was assessed by determining the amount of tasquinimod and the amount of compound III in a sample of the capsules, whereby the criterion for approving the batch was that a sample of capsules from the batch, at the end of a 3-month stability testing, contain not more than 1.0% w/w of compound III relative to the amount of tasquinimod in the capsules. The stability testing consisted of keeping the capsules at 40° C./75% RH in sealed brown glass jars. At the end of the stability testing, the capsules contained 0.08% w/w of compound III, relative to the amount of tasquinimod (0.493 mg/capsule). Therefore, according to the selected criterion for approval, the batch of capsules was determined to be suitable for distribution.
The batch of capsules manufactured in Example 13 was assessed by determining the amount of tasquinimod and the amount of compound III in a sample of the capsules, whereby the criterion for approving the batch was that the capsules of the sample, at the end of a 3-month stability testing, contain not more than 1.0% w/w of compound III relative to the amount of tasquinimod in the capsules. The stability testing consisted of keeping the capsules, in a transparent, conventional blister pack, at 40° C./75% RH. At the end of the stability testing, the capsules contained 0.12% w/w of compound III, relative to the amount of tasquinimod (determined to be 0.253 mg/capsule). Therefore, according to the selected criterion for approval, the batch of capsules was determined to be suitable for distribution.

[3] = 0.25 mg capsules of Example 10, 3 months, sealed brown glass jars
[4] = 0.25 mg capsules of Example 10, 6 months, sealed brown glass jars
[5] = 0.25 mg capsules of Example 13, 3 months, transparent blister pack
[6] = 0.25 mg capsules of Example 13, 6 months, blister pack
[7] = 0.5 mg capsules of Example 7, 3 months, sealed brown glass jars
[8] = 0.5 mg capsules of Example 7, 6 months, sealed brown glass jars
[9] = 1 mg capsules of Example 2, 1 month, open brown glass jars
[10] = 1 mg capsules of Example 2, 2 months, open brown glass jars
[11] = 1 mg capsules of Example 2, 3 months, open brown glass jars
[12] = 1 mg capsules of Example 2, 6 months, open brown glass jars
[13] = 1 mg capsules of Example 16, 3 months, transparent blister pack
[14] = 1 mg capsules of Example 16, 6 months, blister pack

amount of compound III in capsules, relative to the amount of tasquinimod ([1]; 0.25 mg capsules of Example 10): 0.07 % w/w | amount of compound III in capsules, relative to the amount of tasquinimod ([1]; 0.25 mg capsules of Example 13): 0.06 % w/w | amount of compound III in capsules, relative to the amount of tasquinimod ([1]; 0.5 mg capsules of Example 7): 0.03 % w/w | Decomposition products (% w/w), relative to the amount of tasquinimod in capsule ([1]; 0.5 mg capsules of Example 28): <0.05 % w/w | amount of compound III in capsules, relative to the amount of tasquinimod ([1]; 1 mg capsules of Example 2): 0.01 % w/w | amount of compound III in capsules, relative to the amount of tasquinimod ([1]; 1 mg capsules of Example 16): 0.02 % w/w | Decomposition products (% w/w), relative to the amount of tasquinimod in capsule ([1]; 1.0 mg capsules of Example 29): <0.05 % w/w | amount of compound III in capsules, relative to the amount of tasquinimod [2, 3]: 0.10 % w/w | amount of compound III in capsules, relative to the amount of tasquinimod [2, 4]: 0.10 % w/w | amount of compound III in capsules, relative to the amount of tasquinimod [2, 5]: 0.12 % w/w | amount of compound III in capsules, relative to the amount of tasquinimod [2, 6]: 0.24 % w/w | amount of compound III in capsules, relative to the amount of tasquinimod [2, 7]: 0.08 % w/w | amount of compound III in capsules, relative to the amount of tasquinimod [2, 8]: 0.14 % w/w | amount of compound III in capsules, relative to the amount of tasquinimod [2, 9]: 0.13 % w/w | amount of compound III in capsules, relative to the amount of tasquinimod [2, 10]: 0.12 % w/w | amount of compound III in capsules, relative to the amount of tasquinimod [2, 11]: 0.14 % w/w | amount of compound III in capsules, relative to the amount of tasquinimod [2, 12]: 0.16 % w/w | amount of compound III in capsules, relative to the amount of tasquinimod [2, 13]: 0.13 % w/w | amount of compound III in capsules, relative to the amount of tasquinimod [2, 14]: 0.21 % w/w
Compound: COc1cccc2c1c(O)cc(=O)n2C [Compound III, 4-hydroxy-5-methoxy-1-methylquinolin-2(1H)-one]

amount of tasquinimod in capsules ([1]; 0.25 mg capsules of Example 10): 0.252 mg/capsule | amount of tasquinimod in capsules ([1]; 0.25 mg capsules of Example 13): 0.256 mg/capsule | amount of tasquinimod in capsules ([1]; 0.25 mg capsules of Example 19): 0.244 mg/capsule | amount of tasquinimod in capsules ([1]; 0.5 mg capsules of Example 7): 0.498 mg/capsule | Tasquinimod (mg/capsule) ([1]; 0.5 mg capsules of Example 28): 0.500 mg/capsule | amount of tasquinimod in capsules ([1]; 1 mg capsules of Example 2): 1.05 mg/capsule | amount of tasquinimod in capsules ([1]; 1 mg capsules of Example 16): 0.994 mg/capsule | Tasquinimod (mg/capsule) ([1]; 1.0 mg capsules of Example 29): 0.992 mg/capsule | amount of tasquinimod in capsules [2, 3]: 0.253 mg/capsule | amount of tasquinimod in capsules [2, 4]: 0.247 mg/capsule | amount of tasquinimod in capsules [2, 5]: 0.253 mg/capsule | amount of tasquinimod in capsules [2, 6]: 0.247 mg/capsule | amount of tasquinimod in capsules [2, 7]: 0.493 mg/capsule | amount of tasquinimod in capsules [2, 8]: 0.487 mg/capsule | amount of tasquinimod in capsules [2, 9]: 1.04 mg/capsule | amount of tasquinimod in capsules [2, 10]: 1.04 mg/capsule | amount of tasquinimod in capsules [2, 11]: 1.00 mg/capsule | amount of tasquinimod in capsules [2, 12]: 1.01 mg/capsule | amount of tasquinimod in capsules [2, 13]: 0.993 mg/capsule | amount of tasquinimod in capsules [2, 14]: 0.985 mg/capsule
Compound: COc1cccc2c1c(O)c(C(=O)N(C)c1ccc(C(F)(F)F)cc1)c(=O)n2C [Tasquinimod, 4-hydroxy-5-methoxy-N, 1-dimethyl-2-oxo-N-[4-(trifluoromethyl)phenyl]-1,2-dihydroquinoline-3-carboxamide]

Source: US20240277693A1, “A PHARMACEUTICAL PRODUCT CONTAINING TASQUINIMOD AND A METHOD FOR ASSESSING THE PURITY OF SAID PRODUCT” (ACTIVE BIOTECH AB, priority 2021, published 2024)
